Values of other authors as cited in patent US20220175673A1, “SURGICAL DEVICE” (Saint Anthony Biomedical, LLC, priority 2017, published 2022).

Columns and labels:
[1] = test system: MDR isolates (MRSA, E. faecium, K pneumoniae, E. aerogenes, E. coli and A. baumani); details: 0.05% CHG, 1-minute exposure
Veillonella = details: compared with other anaerobic bacteria
[2] = test system: Enterococcus, including E. faecalis and E. faecium; details: vancomycin-susceptible and vancomycin-resistant strains
[3] = test system: Staphylococcus aureus, S. epidermidis, S. haemolyticus, S. hominis, S. simulans; details: both oxacillin-resistant and oxacillin-susceptible staphylococci
[4] = test system: Epidermophyton occosum, Microsporum gypseum, M canis, Trichophyton mentagrophytes
[5] = test system: Streptococcus mutans, S. pyogenes, S. salivarius, S. sanguis; details: Gram-positive aerobic bacteria
[6] = test system: Candida albicans, C. dubliniensis, C. glabrata, C. gullermondii, C. pseudotropicalis, C. krusei, C. lusitaniae, C. tropicalis
[7] = test system: CMV, HIV, HSV-1, HSV-2, influenza virus, parainfluenza virus, variola virus; details: viruses with a lipid component in outer coat or an outer envelope

| Structure (SMILES) | log-reduction in MDR isolates [1] | activity (Veillonella) | activity [2] | activity [3] | activity [4] | effect on wound healing (wound healing) | activity [5] | activity [6] | effect on keratinocytes (keratinocytes) | antiviral activity [7] |
| --- | --- | --- | --- | --- | --- | --- | --- | --- | --- | --- |
| N=C(NCCCCCCNC(=N)NC(=N)Nc1ccc(Cl)cc1)NC(=N)Nc1ccc(Cl)cc1.O=C(O)[C@H](O)[C@@H](O)[C@H](O)[C@H](O)CO.O=C(O)[C@H](O)[C@@H](O)[C@H](O)[C@H](O)CO [CHG, chlorhexidine gluconate] | greater than or equal to 99.99% |  |  |  |  |  |  |  |  |  |
| [H]/N=C(\N/C(=N/[H])NCCCCCCNC(=N)NC(=N)Nc1ccc(Cl)cc1)Nc1ccc(Cl)cc1 [Chlorhexidine, chlorhexidine] |  | less active | active | active | some activity | inhibitory effect | highly active | some activity | cytotoxic effect | appears to have antiviral activity |
